According to patent publication US11702443B2, “Therapeutic agents and methods” (Pop Test Oncology LLC, priority 2016, dated 2023):
In brackets after ≈: the same amount, converted by molar mass. Entries after “also recorded” stand apart in the source; their conditions may differ. Read-outs that look alike come from different tables or passages of the source.

Experiments:
[1] = system: Human Hepatitis B Virus Subtype ayw; assay: In vitro antiviral activity versus HBV ayw replication, DNA (Southern) hybridization; assay type: cell-based; conditions: HepG2 2.2.15
[2] = Host cytotoxicity in HBV assay; conditions: human, HepG2 2.2.15 cells
[3] = system: Mycobacterium tuberculosis ATCC 9360 H37Rv; conditions: cited from earlier work
[4] = system: Staphylococcus aureus Tour; conditions: cited from earlier work
[5] = system: Mycobacterium tuberculosis virulent standard strain H37Rv; assay: Standard resazurin-resorufin assay versus M. tuberculosis H37Rv; assay type: cell-based
[6] = system: Staphylococcus aureus Tour Rif-resistant; conditions: cited from earlier work
[7] = system: Staphylococcus aureus infection; conditions: cited from earlier work
[8] = cited from earlier work
[9] = system: Streptococcus haemolyticus = S. pyogenes C 203; conditions: Streptococcus haemolyticus C 203, cited from earlier work
[10] = system: Escherichia coli ATCC 10536; conditions: cited from earlier work
[11] = system: Klebsiella pneumoniae ATCC 10031; conditions: cited from earlier work
[12] = system: Diplococcus pneumoniae = Streptococcus pneumoniae U.C. 41; conditions: Diplococcus pneumoniae U.C. 41; cited from earlier work
[13] = system: Staphylococcus aureus ATCC 6538; conditions: cited from earlier work
[14] = system: Proteus vulgaris ATCC 881; conditions: cited from earlier work
[15] = in vivo; cited from earlier work
[16] = system: Pseudomonas aeruginosa ATCC 10145; conditions: cited from earlier work
[17] = Hydrolysis in formic acid-acidified (0.05%) HPLC eluent; assay type: physicochemical; conditions: compared with rifampicin
Description: Compound stock solutions were diluted to 2 mM in DMSO and injected into an Agilent 1100 HPLC system using the following conditions for separation: Phenomenex Gemini C18 column, 3×50 mm; flow rate 0.45 ml/min; gradient 5-95% acetonitrile in water over 8 min with all solvents containing 0.05% formic acid. Detection used the following: UV detector—Agilent diode array, monitored at 214 and 254 nm; mass spectrometry detector (MSD)—Agilent MSD, electrospray ionization, positive mode.
The chromatographic separation of TPR-1 is given in FIGS. 15A to C. • There are four peaks (4.462 min, 4.951 min, 5.657 min, 6.679 min) at 214 nm and 254 nm diode array UV detection • No other significant peaks are seen • The two main peaks (4.951 min, 5.657 min) stem from the two discernible, coexisting ionic forms of the rifamycin.
[drawing 32] • In the above picture the left formula is zwitterionic, whereas the right formula is cationic. The zwitterionic form elutes at 4.951 min, since it is more polar, and the cationic form elutes at 5.657 min, since it is more lipophilic. The cationic form was integrated by IDRI as 59%. So the cationic form dominates in the formic acid-acidified (0.05%) HPLC eluent, as to be expected • The two small side peaks stem from hydrolysis of TPR-1 by the formic acid-acidified (0.05%) HPLC eluent. This is a phenomenon well-known for rifampcin (Ref. 2). […]

Bacillus megaterium = assay: Activity versus Bacillus megaterium; assay type: cell-based
[18] = Chemical stability (atmospheric oxygen, hydrolysis, UV light)
B. subtilis = assay: Agar Disk Diffusion Assay with B. subtilis; assay type: cell-based, Bacillus subtilis
NF-κB = assay: NF-κB-luciferase reporter in mixed cultures of primary astrocytes and microglia; assay type: cell-based, mice; conditions: 1 μM, 10 μM and 100 μM, 3 hours; then Poly I:C, LPS or TNFα for 24 h
cancer cells = assay: Cytotoxicity to cancer cells; assay type: cell-based
[19] = system: Human Hepatitis B Virus Subtype ayw; assay: In vitro antiviral activity versus HBV ayw replication, RT-qPCR; assay type: cell-based; conditions: HepG2 2.2.15
HepG2 2.2.15 = assay: Host cytotoxicity in HBV assay; conditions: HepG2 2.2.15; rows of RT-qPCR assay
[20] = strain H37Rv, read-out: Minimal inhibitory concentration 99% (MIC99) in nmol/Liter
[21] = strain H37Rv, read-out: Minimal inhibitory concentration 99% (MIC99) in μg/ml

## Nc1ccn([C@@H]2CS[C@H](CO)O2)c(=O)n1 [Lamivudine]
[1]
  EC50: 0.026 µM
  EC90: 0.116 µM
[2]
  CC50: 2190 µM

## CO/N=C/c1c2c(O)c3c(O)c(C)c4c(c3c1O)C(=O)[C@@](C)(O/C=C/[C@H](OC)[C@@H](C)[C@@H](OC(C)=O)[C@H](C)[C@H](O)[C@H](C)[C@@H](O)[C@@H](C)/C=C/C=C(/C)C(=O)N2)O4 [MR-1, (2S,12Z,14E,16S,17S,18R,19R,20R,21S,22R,23S,24E)-21-(acetyloxy)-5,6,9,17,19-pentahydroxy-23-methoxy-8-[(E)-(methoxyimino)methyl]-2,4,12,16,18,20,22-heptamethyl-2,7-(epoxypentadeca[1,11,13]trienimino)naphtho[2,1-b]furan-1,11(2H)-dione]
[3]
  MIC (μg/ml) reference 1 (1966): 0.1 µg/mL (≈ 0.132 µM)
  MIC (μg/ml) reference 2 (1974): 0.05 µg/mL (≈ 0.0662 µM)
[4]
  MIC (μg/ml) reference 2 (1974): 0.002 µg/mL (≈ 0.00265 µM)
[5]; [20]
  MIC99: 106 nmol/L
[5]; [21]
  MIC99: 0.08 µg/mL
[6]
  MIC (μg/ml) reference 2 (1974): >100 µg/mL
[7]
  In vivo effective dose 50% (ED50) (mg/kg) in curing Staphylococcus aureus infection in mice, per os: 0.53 mg/kg
  In vivo effective dose 50% (ED50) (mg/kg) in curing Staphylococcus aureus infection in mice, subcutaneous: 0.87 mg/kg
[8]
  In vivo lethal dose 50% (LD50) (mg/kg) intravenous in mice: 152 mg/kg
[9]
  MIC (μg/ml) reference 1 (1966): 0.01 µg/mL (≈ 0.0132 µM)
  MIC (μg/ml) reference 2 (1974): 0.01 µg/mL (≈ 0.0132 µM)
[10]
  MIC (μg/ml) reference 1 (1966): 5 µg/mL (≈ 6.62 µM)
  MIC (μg/ml) reference 2 (1974): 5 µg/mL (≈ 6.62 µM)
[11]
  MIC (μg/ml) reference 1 (1966): 10 µg/mL (≈ 13.2 µM)
  MIC (μg/ml) reference 2 (1974): 10 µg/mL (≈ 13.2 µM)
[12]
  MIC (μg/ml) reference 2 (1974): 0.01 µg/mL (≈ 0.0132 µM)
[13]
  MIC (μg/ml) reference 1 (1966): 0.0005 µg/mL (≈ 0.000662 µM)
[14]
  MIC (μg/ml) reference 1 (1966): 2 µg/mL (≈ 2.65 µM)
  MIC (μg/ml) reference 2 (1974): 2 µg/mL (≈ 2.65 µM)
[15]
  Oral bioavailability: more orally bioavailable than OR-1
[16]
  MIC (μg/ml) reference 1 (1966): 10 µg/mL (≈ 13.2 µM)
  MIC (μg/ml) reference 2 (1974): 10 µg/mL (≈ 13.2 µM)

## CO[C@H]1/C=C/O[C@@]2(C)Oc3c(C)c(O)c4c(O)c(c(/C=N/O)c(O)c4c3C2=O)NC(=O)/C(C)=C\C=C\[C@H](C)[C@H](O)[C@@H](C)[C@@H](O)[C@@H](C)[C@H](OC(C)=O)[C@@H]1C [OR-1, 3-Formylrifamycin SV (E)-oxime 1.2 hydrate]
[3]
  MIC (μg/ml) reference 1 (1966): 5 µg/mL
  MIC (μg/ml) reference 2 (1974): 5 µg/mL
[4]
  MIC (μg/ml) reference 2 (1974): 0.02 µg/mL
[5]; [20]
  MIC99: 787 nmol/L
[5]; [21]
  MIC99: 0.6 µg/mL
[6]
  MIC (μg/ml) reference 2 (1974): >100 µg/mL
[7]
  In vivo effective dose 50% (ED50) (mg/kg) in curing Staphylococcus aureus infection in mice, per os: 5.66 mg/kg
  In vivo effective dose 50% (ED50) (mg/kg) in curing Staphylococcus aureus infection in mice, subcutaneous: 2.46 mg/kg
[8]
  In vivo lethal dose 50% (LD50) (mg/kg) intravenous in mice: 690 mg/kg
[9]
  MIC (μg/ml) reference 1 (1966): 0.01 µg/mL
  MIC (μg/ml) reference 2 (1974): 0.01 µg/mL
[10]
  MIC (μg/ml) reference 1 (1966): 5 µg/mL
  MIC (μg/ml) reference 2 (1974): 5 µg/mL
[11]
  MIC (μg/ml) reference 1 (1966): 20 µg/mL
  MIC (μg/ml) reference 2 (1974): 20 µg/mL
[12]
  MIC (μg/ml) reference 2 (1974): 0.01 µg/mL
[13]
  MIC (μg/ml) reference 1 (1966): 0.02 µg/mL
[14]
  MIC (μg/ml) reference 1 (1966): 10 µg/mL
  MIC (μg/ml) reference 2 (1974): 10 µg/mL
[15]
  Oral bioavailability: orally bioavailable
[16]
  MIC (μg/ml) reference 1 (1966): 10 µg/mL
  MIC (μg/ml) reference 2 (1974): 10 µg/mL

## CO[C@H]1/C=C/O[C@@]2(C)Oc3c(C)c(O)c4c(O)c(c(/C=N/N5CCN(C)CC5)c(O)c4c3C2=O)NC(=O)/C(C)=C\C=C\[C@H](C)[C@H](O)[C@@H](C)[C@@H](O)[C@@H](C)[C@H](OC(C)=O)[C@@H]1C [Rifampicin, reference compound]
[5]; H37RV, read-out: Minimal inhibitory concentration 99% (MIC99) in nmol/Liter (nM)
  MIC99: 72.7 nmol/L
[5]; H37RV, read-out: Minimal inhibitory concentration 99% (MIC99) in μg/ml
  MIC99: 0.06 µg/mL

## CO[C@H]1/C=C/O[C@@]2(C)Oc3c(C)c(O)c4c(O)c(c(/C=N/N5CC[N+](C)(CC#C[Si](C)(C)C)CC5)c([O-])c4c3C2=O)NC(=O)/C(C)=C\C=C\[C@H](C)[C@H](O)[C@@H](C)[C@@H](O)[C@@H](C)[C@H](OC(C)=O)[C@@H]1C [TPR-1, Nω[3-(Trimethylsilyl)prop-2-yn-1-yl]rifampicinium-4-olate×¾ HBr×H2O]
[17]
  Susceptibility to hydrolysis of the hydrazone imine group in acidic media: more susceptible to this hydrolysis than rifampicin
Bacillus megaterium
  Activity versus Bacillus megaterium: highly active
[18]
  Oxidation by atmospheric oxygen: not oxidized by atmospheric oxygen; also recorded: resistant to oxidation
  Stability towards hydrolysis and UV light: enhanced stability towards hydrolysis and UV light
[5]; [20]
  MIC99: 19.8 to 39.5 nmol/L
[5]; [21]
  MIC99: 0.02 to 0.04 µg/mL
B. subtilis
  Activity versus Bacillus subtilis: highly active
B. subtilis; Bacillus subtilis, paper disc with 1 μg, overnight at 30° C., read-out: Clearance zones (in mm)
  zone of inhibition at 1 µg/disc: 18.3 mm
B. subtilis; Bacillus subtilis, paper disc with 10 μg, overnight at 30° C., read-out: Clearance zones (in mm)
  zone of inhibition at 10 µg/disc: 21.1 mm
NF-κB
  Luciferase activity (suppression of inflammation): dose dependent decrease of luciferase activity

## (11,17)-17-Hydroperoxy-11-[3,4-(methylenedioxy)phenyl]-17-(1-propyn-1-yl)estra-4,9-dien-3-one-(11,17)-17-hydroxy-11-[3,4-(methylenedioxy)phenyl]-17-(1-propyn-1-yl)estra-4,9-dien-3-one (1:1) [PT157]
NF-κB
  Luciferase activity (suppression of inflammation): dose dependent decrease of luciferase activity

## Tetrakis{3-[(tricyclo[3.3.1.1^3,7]decan-1-ammonio)methyl]benzyl}ammonium pentachloride [PT162]
Cancer cells
  Cytotoxicity to cancer cells: extremely cytotoxic to cancer cells

## ⅓(11β,17β)-17-Hydroxy-11-[3,4-(methylenedioxy)phenyl]-17-(1-propyn-1-yl)estra-4,9-dien-3-one (PT150)×(2EZ)-2-{(11β,17β)-17-hydroxy-11-[3,4-(methylenedioxy)phenyl]-17-(1-propyn-1-yl)estra-4,9-dien-3-ylidene}hydrazinecarbothioamide [71.8% (E), 28.2% (Z)]×⅓ H2O× 7/9 acetone [PT155]
[19]
  EC50: 10.8 µM
  EC90: > 100 µM
HepG2 2.2.15
  CC50: > 100 µM
NF-κB
  Luciferase activity (suppression of inflammation): dose dependent decrease of luciferase activity
Solubility; ethanol, acetone, DMSO, DMF, ethyl acetate, and chloroform
  Solubility in organic solvents: very soluble
Solubility; water
  Solubility in water: not soluble in water initially
